Assay [1] can be described thus: Inhibition of human recombinant cyclin D2-CDK4.
For assay [2], the target named is Cyclin-dependent kinase 2 and 4 (CDK2 and CDK4) (Homo sapiens) (UniProt P11802+P24941). The experiment in a line: Selectivity for CDK4 over CDK2. Type of assay: protein assay.
In assay [3] the target is Cyclin-dependent kinase 2/cyclin A (Homo sapiens, UniProt P24941). The experiment in a line: Inhibition of human recombinant cyclin A-CDK2. Type of assay: protein-complex assay.
Another assay is filed under the species Homo sapiens. As to the kind of experiment: Selectivity for CDK4 over CDK1.
For assay [4], the target named is Cyclin-dependent kinase 1/cyclin B (Homo sapiens, UniProt P06493). As to the kind of experiment: Inhibition of human recombinant cyclin B-CDK1. Type of assay: protein-complex assay.
For a further assay, the target named is CaM kinase II (Homo sapiens, UniProt Q13557+Q13555+Q13554+Q9UQM7). As to the kind of experiment: Inhibition of calcium/calmodulin-dependent protein kinase type II. Type of assay: protein assay.
Assay [5] addresses Fibroblast growth factor receptor 1 (Homo sapiens, UniProt P11362). The experiment in a line: Inhibition of fibroblast growth factor receptor 1.
Assay [6] addresses Mitogen-activated protein kinase 3 (Homo sapiens, UniProt P27361). As to the kind of experiment: Inhibition of ERK1 ser/thr kinase.
In assay [7] the target is Dual specificity mitogen-activated protein kinase kinase 1 (Homo sapiens, UniProt Q02750). The experiment in a line: Inhibition of mitogen activated protein kinase kinase 1.
Assay [8] deals with cAMP-dependent protein kinase (PKA) (Homo sapiens, UniProt P22694+P17612+P22612). The experiment in a line: Inhibition of PKA ser/thr kinase. Type of assay: protein assay.
Assay [9] concerns the target Platelet-derived growth factor receptor beta (Homo sapiens, UniProt P09619). As to the kind of experiment: Inhibition of PDGFRbeta tyrosine kinase.
For the next assay, the target named is Protein kinase C (PKC). The experiment in a line: Inhibition of PKC ser/thr kinase. Type of assay: protein assay, Homo sapiens.
The target in assay [10] is Proto-oncogene tyrosine-protein kinase Src (Homo sapiens, UniProt P12931). As to the kind of experiment: Inhibition of Src tyrosine kinase.
Assay [11] addresses Vascular endothelial growth factor receptor 1 (Homo sapiens, UniProt P17948). As to the kind of experiment: Inhibition of Flt-1 tyrosine kinase.
A short description of assay [12]: Inhibition of cyclin D2-CDK4 ser/thr kinase. Also noted: species or system Homo sapiens.
For assay [13], the target named is T1, Tyrosine-protein kinase ZAP-70 (Homo sapiens, UniProt P43403).
T1 sequence (P43403 whole entry): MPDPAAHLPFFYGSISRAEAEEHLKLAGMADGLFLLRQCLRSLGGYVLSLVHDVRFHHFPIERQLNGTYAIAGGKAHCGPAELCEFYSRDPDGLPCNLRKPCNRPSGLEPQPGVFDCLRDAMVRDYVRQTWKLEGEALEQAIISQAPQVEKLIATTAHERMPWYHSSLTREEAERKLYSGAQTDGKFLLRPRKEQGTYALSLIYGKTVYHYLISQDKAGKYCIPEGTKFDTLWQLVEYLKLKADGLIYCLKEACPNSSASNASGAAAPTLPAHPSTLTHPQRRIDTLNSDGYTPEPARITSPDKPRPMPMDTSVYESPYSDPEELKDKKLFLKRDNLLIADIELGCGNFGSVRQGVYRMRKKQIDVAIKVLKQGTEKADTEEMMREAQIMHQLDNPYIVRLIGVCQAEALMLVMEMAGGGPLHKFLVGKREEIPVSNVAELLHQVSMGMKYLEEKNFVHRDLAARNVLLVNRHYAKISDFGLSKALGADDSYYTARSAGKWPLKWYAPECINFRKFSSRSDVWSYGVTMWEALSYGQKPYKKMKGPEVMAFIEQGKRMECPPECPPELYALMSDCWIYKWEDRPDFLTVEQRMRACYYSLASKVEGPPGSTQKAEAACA
As to the kind of experiment: Inhibition of Zap70 tyrosine kinase.

The target of a further assay is CDK6/cyclin D1 (Homo sapiens, UniProt Q00534). As to the kind of experiment: Inhibition of cyclin D1-CDK6 ser/thr kinase. Type of assay: protein-complex assay.
The target of assay [14] is Tyrosine-protein kinase Lck (Homo sapiens, UniProt P06239). The experiment in a line: Inhibition of Lck tyrosine kinase.
Assay [15] concerns the target Mitogen-activated protein kinase 14 (Homo sapiens, UniProt Q16539). The experiment in a line: Inhibition of p38-alpha ser/thr kinase.
Assay [16] concerns the target RAC-alpha serine/threonine-protein kinase (Homo sapiens, UniProt P31749). The experiment in a line: Inhibition of PKBalpha (Akt1) ser/thr kinase.

RAC-alpha serine/threonine-protein kinase, sequence (P31749 whole entry): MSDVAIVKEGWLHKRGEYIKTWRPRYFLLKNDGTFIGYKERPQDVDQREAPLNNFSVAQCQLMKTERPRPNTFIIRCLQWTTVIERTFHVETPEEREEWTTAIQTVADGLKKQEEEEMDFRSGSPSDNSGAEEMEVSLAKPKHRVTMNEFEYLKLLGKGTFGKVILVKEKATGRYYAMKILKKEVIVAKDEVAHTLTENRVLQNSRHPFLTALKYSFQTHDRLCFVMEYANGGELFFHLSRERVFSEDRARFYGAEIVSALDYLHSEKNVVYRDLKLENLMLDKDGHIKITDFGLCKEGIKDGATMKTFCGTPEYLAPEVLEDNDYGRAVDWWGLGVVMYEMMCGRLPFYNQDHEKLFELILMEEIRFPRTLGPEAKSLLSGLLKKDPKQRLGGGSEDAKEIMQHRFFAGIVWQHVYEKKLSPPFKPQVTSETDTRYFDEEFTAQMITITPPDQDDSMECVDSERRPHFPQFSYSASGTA
Proto-oncogene tyrosine-protein kinase Src, sequence (P12931 2-536 limits assumed): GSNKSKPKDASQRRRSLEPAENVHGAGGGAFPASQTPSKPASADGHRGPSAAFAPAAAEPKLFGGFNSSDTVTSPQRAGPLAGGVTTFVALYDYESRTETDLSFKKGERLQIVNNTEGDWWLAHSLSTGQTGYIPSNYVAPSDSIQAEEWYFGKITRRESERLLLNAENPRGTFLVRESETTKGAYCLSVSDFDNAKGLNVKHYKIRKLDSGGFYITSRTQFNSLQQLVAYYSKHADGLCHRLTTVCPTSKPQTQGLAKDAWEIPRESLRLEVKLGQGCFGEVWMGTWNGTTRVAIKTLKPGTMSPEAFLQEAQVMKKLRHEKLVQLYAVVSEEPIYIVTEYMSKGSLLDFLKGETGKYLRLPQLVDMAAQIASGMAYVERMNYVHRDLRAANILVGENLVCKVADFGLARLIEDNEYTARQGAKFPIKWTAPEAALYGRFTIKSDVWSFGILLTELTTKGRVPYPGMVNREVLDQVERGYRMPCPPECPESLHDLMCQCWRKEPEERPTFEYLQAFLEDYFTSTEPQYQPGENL
Platelet-derived growth factor receptor beta, sequence (P09619 whole entry): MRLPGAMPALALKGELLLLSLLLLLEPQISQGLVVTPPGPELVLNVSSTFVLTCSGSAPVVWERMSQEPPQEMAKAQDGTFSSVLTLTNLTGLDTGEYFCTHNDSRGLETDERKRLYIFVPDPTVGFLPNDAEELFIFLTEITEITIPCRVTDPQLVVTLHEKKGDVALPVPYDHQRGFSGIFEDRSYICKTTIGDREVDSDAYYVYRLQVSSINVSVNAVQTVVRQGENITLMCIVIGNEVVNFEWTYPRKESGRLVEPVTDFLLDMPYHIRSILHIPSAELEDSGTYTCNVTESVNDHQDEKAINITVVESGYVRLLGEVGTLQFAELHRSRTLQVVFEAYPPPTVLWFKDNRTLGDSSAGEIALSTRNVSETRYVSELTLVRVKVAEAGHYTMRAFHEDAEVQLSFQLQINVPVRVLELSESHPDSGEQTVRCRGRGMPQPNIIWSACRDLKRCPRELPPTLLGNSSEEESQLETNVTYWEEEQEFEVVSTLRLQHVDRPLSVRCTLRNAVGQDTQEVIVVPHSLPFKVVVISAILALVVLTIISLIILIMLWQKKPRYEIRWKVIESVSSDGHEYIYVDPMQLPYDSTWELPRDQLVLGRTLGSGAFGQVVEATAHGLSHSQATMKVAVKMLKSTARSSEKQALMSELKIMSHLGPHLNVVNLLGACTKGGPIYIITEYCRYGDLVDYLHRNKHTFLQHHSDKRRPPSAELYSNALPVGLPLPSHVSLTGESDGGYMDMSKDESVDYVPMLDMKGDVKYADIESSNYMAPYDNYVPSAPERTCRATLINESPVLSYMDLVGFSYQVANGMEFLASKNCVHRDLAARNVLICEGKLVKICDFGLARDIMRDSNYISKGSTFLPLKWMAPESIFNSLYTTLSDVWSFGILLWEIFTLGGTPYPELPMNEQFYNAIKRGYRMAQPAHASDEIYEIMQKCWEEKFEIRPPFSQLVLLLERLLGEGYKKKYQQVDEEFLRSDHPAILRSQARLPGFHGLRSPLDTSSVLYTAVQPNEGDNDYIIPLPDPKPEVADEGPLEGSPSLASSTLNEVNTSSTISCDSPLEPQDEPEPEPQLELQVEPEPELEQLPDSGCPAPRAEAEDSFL
Mitogen-activated protein kinase 3, sequence (P27361 whole entry): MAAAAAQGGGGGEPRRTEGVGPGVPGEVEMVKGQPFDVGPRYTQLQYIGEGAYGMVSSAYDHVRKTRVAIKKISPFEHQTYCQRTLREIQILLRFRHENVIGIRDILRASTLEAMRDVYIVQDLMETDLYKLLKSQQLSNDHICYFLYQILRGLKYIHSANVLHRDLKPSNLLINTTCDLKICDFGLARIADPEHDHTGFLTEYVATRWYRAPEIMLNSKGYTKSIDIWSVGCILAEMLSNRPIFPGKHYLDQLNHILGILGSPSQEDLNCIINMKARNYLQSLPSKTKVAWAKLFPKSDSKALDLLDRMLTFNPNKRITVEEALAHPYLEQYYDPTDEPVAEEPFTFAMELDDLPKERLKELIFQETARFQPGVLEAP
CDK6/cyclin D1, sequence (P24385 whole entry): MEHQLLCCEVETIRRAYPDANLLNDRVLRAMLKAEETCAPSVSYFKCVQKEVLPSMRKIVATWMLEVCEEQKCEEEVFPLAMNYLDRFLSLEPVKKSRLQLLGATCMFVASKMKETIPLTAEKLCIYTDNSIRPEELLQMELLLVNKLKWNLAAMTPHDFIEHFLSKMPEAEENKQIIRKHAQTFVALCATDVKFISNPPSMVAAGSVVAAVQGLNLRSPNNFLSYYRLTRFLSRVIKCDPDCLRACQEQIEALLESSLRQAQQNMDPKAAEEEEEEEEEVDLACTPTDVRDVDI
CDK6/cyclin D1, sequence (Q00534 whole entry): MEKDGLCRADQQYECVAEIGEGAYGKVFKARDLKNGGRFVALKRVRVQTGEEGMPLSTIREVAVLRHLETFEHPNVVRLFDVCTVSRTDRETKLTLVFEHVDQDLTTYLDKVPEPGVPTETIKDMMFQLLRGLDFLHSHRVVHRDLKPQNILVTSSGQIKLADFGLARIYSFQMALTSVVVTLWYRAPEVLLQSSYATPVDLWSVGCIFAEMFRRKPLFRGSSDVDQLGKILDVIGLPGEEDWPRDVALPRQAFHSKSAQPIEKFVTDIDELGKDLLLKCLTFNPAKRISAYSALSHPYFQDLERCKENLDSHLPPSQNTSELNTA
Tyrosine-protein kinase Lck, sequence (P06239 whole entry): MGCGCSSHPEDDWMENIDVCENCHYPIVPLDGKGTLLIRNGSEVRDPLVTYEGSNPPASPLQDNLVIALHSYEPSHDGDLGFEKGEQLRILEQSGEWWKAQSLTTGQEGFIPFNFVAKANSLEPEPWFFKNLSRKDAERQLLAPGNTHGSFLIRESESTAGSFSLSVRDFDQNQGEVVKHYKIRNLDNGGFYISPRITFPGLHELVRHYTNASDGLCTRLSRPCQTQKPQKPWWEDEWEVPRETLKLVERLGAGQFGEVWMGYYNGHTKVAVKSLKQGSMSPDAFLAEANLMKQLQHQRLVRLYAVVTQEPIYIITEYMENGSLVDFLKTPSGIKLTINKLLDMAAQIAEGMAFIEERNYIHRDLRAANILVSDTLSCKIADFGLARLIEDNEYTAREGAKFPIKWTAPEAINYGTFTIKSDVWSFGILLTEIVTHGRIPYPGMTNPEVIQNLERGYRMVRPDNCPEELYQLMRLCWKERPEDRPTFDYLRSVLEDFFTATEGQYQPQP
Fibroblast growth factor receptor 1, sequence (P11362 whole entry): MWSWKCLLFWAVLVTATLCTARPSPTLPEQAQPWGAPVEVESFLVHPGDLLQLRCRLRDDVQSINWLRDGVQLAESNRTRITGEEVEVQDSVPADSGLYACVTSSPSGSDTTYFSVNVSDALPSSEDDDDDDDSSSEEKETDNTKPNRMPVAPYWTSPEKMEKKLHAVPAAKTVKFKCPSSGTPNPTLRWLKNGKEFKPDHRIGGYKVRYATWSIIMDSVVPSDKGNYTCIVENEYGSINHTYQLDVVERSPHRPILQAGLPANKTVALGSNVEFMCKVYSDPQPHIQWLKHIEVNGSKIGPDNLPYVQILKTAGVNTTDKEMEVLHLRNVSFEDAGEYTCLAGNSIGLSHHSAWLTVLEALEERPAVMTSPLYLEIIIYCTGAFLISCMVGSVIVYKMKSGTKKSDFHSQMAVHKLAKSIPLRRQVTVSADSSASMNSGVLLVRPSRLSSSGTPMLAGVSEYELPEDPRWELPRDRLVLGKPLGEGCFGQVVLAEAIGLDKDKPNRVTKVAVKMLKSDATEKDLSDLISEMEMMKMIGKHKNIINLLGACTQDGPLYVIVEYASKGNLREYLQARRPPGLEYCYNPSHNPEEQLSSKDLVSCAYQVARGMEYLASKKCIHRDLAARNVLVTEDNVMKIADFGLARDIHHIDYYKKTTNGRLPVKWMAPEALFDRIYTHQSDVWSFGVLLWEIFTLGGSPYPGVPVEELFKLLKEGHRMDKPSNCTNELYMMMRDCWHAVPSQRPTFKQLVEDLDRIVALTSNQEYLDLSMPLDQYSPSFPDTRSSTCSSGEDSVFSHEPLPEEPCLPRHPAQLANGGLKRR
Mitogen-activated protein kinase 14, sequence (Q16539 whole entry): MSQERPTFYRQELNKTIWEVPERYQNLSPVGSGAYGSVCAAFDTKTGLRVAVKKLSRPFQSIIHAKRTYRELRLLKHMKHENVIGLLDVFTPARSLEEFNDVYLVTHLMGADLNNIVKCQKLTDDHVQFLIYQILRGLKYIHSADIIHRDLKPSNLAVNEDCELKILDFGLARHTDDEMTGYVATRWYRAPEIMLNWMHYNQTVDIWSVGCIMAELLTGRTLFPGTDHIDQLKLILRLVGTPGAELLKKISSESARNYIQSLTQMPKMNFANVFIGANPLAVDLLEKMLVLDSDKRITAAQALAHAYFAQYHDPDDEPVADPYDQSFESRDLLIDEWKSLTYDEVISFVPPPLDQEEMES

With `O=C(Nc1cc[nH]n1)Nc1cccc2c1[C@@H]1CCCN1C2=O`, the 50% inhibitory concentration (IC50) – broadly, the concentration at which inhibition is half-maximal – in [1] was 0.029 µM.
As to `CC(C)NCc1cc(NC(=O)Nc2cccc3c2C2CCCN2C3=O)[nH]n1` (stereo unspecified), the Selectivity in [2] amounted to 130. Further, the IC50 in assay [1] came out at 0.13 µM; in [3], 17 µM.
`CCCNCc1cc(NC(=O)Nc2cccc3c2C2CCCN2C3=O)[nH]n1` (stereo unspecified) had a Selectivity in [2] of 75. The half-inhibitory concentration (IC50) stood at 0.16 µM in [1] and 12 µM in assay [3].
In assay [2], `CNCc1cc(NC(=O)Nc2cccc3c2C2CCCN2C3=O)[nH]n1` (stereo unspecified) showed a Selectivity of 48. The IC50 in [1] is 0.29 µM; in assay [3], 14 µM.
Regarding `O=C(Nc1cc(CNC2CCCCC2)[nH]n1)Nc1cccc2c1C1CCCN1C2=O` (stereo unspecified), the Selectivity in assay [2] came out at 27. Moreover, the IC50 is 0.72 µM in assay [1] and 20 µM in [3].
As for `O=C(Nc1cc[nH]n1)Nc1cccc2c1[C@H]1CCCN1C2=O`, in assay [1], the IC50 turned out to be 0.021 µM.
As for `CC(C)(C)NCc1cc(NC(=O)Nc2cccc3c2C2CCCN2C3=O)[nH]n1` (stereo unspecified), in assay [2], the Selectivity was 180. The IC50 came out at 0.056 µM in assay [1] and 9.8 µM in assay [3].
Take `O=C(Nc1cc([C@@H]2CCCN2)[nH]n1)Nc1cccc2c1[C@H]1CCCN1C2=O`: the Selectivity in assay [2] stood at 110; in the assay listed under Homo sapiens, 140. In addition, the half-inhibitory concentration (IC50) in [1] stood at 0.22 µM; in [3], 25 µM; in assay [4], 31 µM.
Consider `O=C(Nc1cc([C@@H]2CCCN2)[nH]n1)Nc1cccc2c1[C@@H]1CCCN1C2=O`, for which the Selectivity in [2] is 120; in the assay filed under Homo sapiens it was 130. Also, the 50% inhibitory concentration (IC50) in [1] amounted to 0.21 µM.
For the molecule `O=C(Nc1ccccn1)Nc1cccc2c1[C@H]1CCCN1C2=O`, the half-inhibitory concentration (IC50) on CaM kinase II is above 10 µM; in assay [5] it was 6.7 µM; in assay [6], above 10 µM; in assay [7] it was above 10 µM; in [8], above 20 µM; in assay [9] it was 5 µM. Further, the half-maximal inhibitory concentration (IC50) is above 20 µM on Protein kinase C (PKC); above 5 µM in [10]; 2.8 µM in assay [11]; 0.042 µM in [12]; above 10 µM in [13]; 0.071 µM against CDK6/cyclin D1. In addition, the IC50 in assay [14] is 2.3 µM; in assay [15] it was above 10 µM; in assay [16], above 10 µM.
`O=C(Nc1cc(CNC2CCCC2)[nH]n1)Nc1cccc2c1C1CCCN1C2=O` (stereo unspecified) showed a Selectivity in assay [2] of 150. Further, the IC50 in [1] is 0.065 µM.
For `O=C(Nc1cc(CNC2CCCC2)n[nH]1)Nc1cccc2c1C1CCCN1C2=O` (stereo unspecified), the IC50 in assay [3] worked out at 9.7 µM.
In turn, `O=C(Nc1cc(CN2CCCC2)[nH]n1)Nc1cccc2c1C1CCCN1C2=O` (stereo unspecified) registered a Selectivity in [2] of 16. The IC50 in assay [1] stood at 0.47 µM; in [3], 7.5 µM.
For the molecule `O=C(Nc1cc([C@@H]2CCCN2)n[nH]1)Nc1cccc2c1[C@@H]1CCCN1C2=O`, the results for the IC50 in assay [3] and in [4] were 25 µM and 28 µM, respectively.
Regarding `O=C(Nc1cc(CN2CCCCC2)[nH]n1)Nc1cccc2c1C1CCCN1C2=O` (stereo unspecified), in assay [2], the Selectivity was 48. Moreover, the IC50 was found to be 0.25 µM in assay [1] and 12 µM in assay [3].

For the origin of these results see ChEMBL document CHEMBL1134322, “A novel approach for the development of selective Cdk4 inhibitors: library design based on locations of Cdk4 specific amino acid residues” (J Med Chem, 2001).
